Test results: patent US8772505B2, “Antiviral compounds composed of three aligned aryl moieties to treat diseases such as hepatitis C” (Merck Sharp & Dohme Corp., priority 2009, dated 2014)
pEC50: −log10 of the molar value.

tested on: HCV replicon; experiment: Cell-based HCV replicon assay (EC90); conditions: Hepatitis C virus, 72 h; replicon RNA by real time PCR (Taqman), day 3; class symbols; read-out: Biological Activity (EC90, HCV replicon)
Experimental: To measure cell-based anti-HCV activity of selected compounds of the present invention, replicon cells were seeded at 5000 cells/well in 96-well collagen I-coated Nunc plates in the presence of the test compound. Various concentrations of test compound, typically in 10 serial 2-fold dilutions, were added to the assay mixture, with the starting concentration ranging from 250 μM to 1 μM. The final concentration of DMSO was 0.5%, fetal bovine serum was 5%, in the assay media. Cells were harvested on day 3 by the addition of 1× cell lysis buffer (Ambion cat #8721). The replicon RNA level was measured using real time PCR (Taqman assay). The amplicon was located in 5B. The PCR primers were: 5B.2F, ATGGACAGGCGCCCTGA (SEQ. ID NO. 1); 5B.2R, […] (SEQ. ID NO. 2); the probe sequence was FAM-labeled CACGCCATGCGCTGCGG (SEQ. ID NO. 3). GAPDH RNA was used as endogenous control and was amplified in the same reaction as NS5B (multiplex PCR) using primers and VIC-labeled probe recommended by the manufacturer (PE Applied Biosystem). The real-time RT-PCR reactions were run on ABI PRISM 7900HT Sequence Detection System using the following program: 48° C. for 30 min, 95° C. for 10 min, 40 cycles of 95° C. for 15 sec, 60° C. for 1 min. The ACT values (CT5B-CTGAPDH) were plotted against the concentration of test compound and fitted to the sigmoid dose-response model using XLfit4 (MDL). EC50 was defined as the concentration of inhibitor necessary to achieve ΔCT=1 over the projected baseline; EC90 the concentration necessary to achieve ΔCT=3.2 over the baseline. Alternatively, to quantitate the absolute amount of replicon RNA, a standard curve was established by including serially diluted T7 transcripts of replicon RNA in the Taqman assay. All Taqman reagents were from PE Applied Biosystems. Such an assay procedure was described in detail in e.g. Malcolm et al., Antimicrobial Agents and Chemotherapy 50: 1013-1020 (2006).
HCV replicon assay data was calculated for selected compounds of the present invention using this method.

Row | SMILES | EC90
1 | [2H]C([2H])([2H])C([2H])(C([2H])([2H])[2H])[C@]([2H])(NC(=O)OC)C(=O)N1CCC[C@H]1c1nc2ccc(-c3ccc(-c4ccc5nc([C@@H]6CCCN6C(=O)[C@@]([2H])(NC(=O)OC)C([2H])(C([2H])([2H])[2H])C([2H])([2H])[2H])[nH]c5c4)c(OC(F)(F)F)c3)cc2[nH]1 [Compound 134] | < 1 nM
2 | COC(=O)N[C@H](C(=O)N1CCC[C@H]1c1nc2ccc(-c3ccc(-c4ccc5nc([C@@H]6CCCN6C(=O)[C@@H](NC(=O)OC)C(C)C)[nH]c5c4)c4ccccc34)cc2[nH]1)C(C)C [Compound 59] | < 1 nM
3 | [2H]C([2H])([2H])C([2H])(C([2H])([2H])[2H])[C@]([2H])(NC(=O)OC)C(=O)N1C([2H])([2H])C([2H])([2H])C([2H])([2H])[C@]1([2H])c1nc2ccc(-c3ccc(-c4ccc5nc([C@]6([2H])N(C(=O)[C@@]([2H])(NC(=O)OC)C([2H])(C([2H])([2H])[2H])C([2H])([2H])[2H])C([2H])([2H])C([2H])([2H])C6([2H])[2H])[nH]c5c4)c(OC(F)(F)F)c3)cc2[nH]1 [Compound 135] | < 1 nM
4 | CC(=O)N1CCC[C@H]1c1nc2ccc(-c3ccc(-c4ccc5nc([C@@H]6CCCN6C(C)=O)[nH]c5c4)nc3)cc2[nH]1 [Compound 42] | > 1000 nM
5 | COC(=O)N[C@H](C(=O)N1CCC[C@H]1c1nc2ccc(-c3ccc(-c4ccc5nc([C@@H]6CCCN6C(=O)[C@@H](NC(=O)OC)C(C)C)[nH]c5c4)c4c3ccn4C)cc2[nH]1)C(C)C [Compound 133] | < 1 nM
6 | COC(=O)N[C@H](C(=O)N1CCC[C@H]1c1nc2cc(F)c(-c3cc(C)c(-c4cc5[nH]c([C@@H]6CCCN6C(=O)[C@@H](NC(=O)OC)C(C)C)nc5cc4F)s3)cc2[nH]1)C(C)C [Compound 119] | < 1 nM
7 | COC(=O)N[C@H](C(=O)N1CCC[C@H]1c1nc2ccc(-c3cnc(-c4ccc5nc([C@@H]6CCCN6C(=O)[C@@H](NC(=O)OC)C(C)C)[nH]c5c4)cn3)cc2[nH]1)C(C)C [Compound 64] | < 1 nM
8 | c1cc(-c2ccc3nc([C@@H]4CCCN4)[nH]c3c2)ncc1-c1ccc2nc([C@@H]3CCCN3)[nH]c2c1 [Compound 43] | > 1000 nM
9 | COC(=O)N[C@H](C(=O)N1CCC[C@H]1c1nc2ccc(-c3ccc(-c4ccc5nc([C@@H]6CCCN6C(=O)[C@@H](NC(=O)OC)C(C)C)[nH]c5c4)c(OC(F)(F)F)c3)cc2[nH]1)C(C)C [Compound 129] | < 1 nM
10 | COC(=O)N[C@H](C(=O)N1CCC[C@H]1c1nc2ccc(-c3cc(-c4ccccc4)c(-c4ccc5nc([C@@H]6CCCN6C(=O)[C@@H](NC(=O)OC)C(C)C)[nH]c5c4)s3)cc2[nH]1)C(C)C [Compound 128] | < 1 nM
11 | CCCCc1cc(-c2ccc3nc([C@@H]4CCCN4C(=O)[C@@H](NC(=O)OC)C(C)C)[nH]c3c2)sc1-c1ccc2nc([C@@H]3CCCN3C(=O)[C@@H](NC(=O)OC)C(C)C)[nH]c2c1 [Compound 121] | < 1 nM
12 | COC(=O)N[C@H](C(=O)N1CCC[C@H]1c1nc2ccc(-c3ccc(-c4ccc5nc([C@@H]6CCCN6C(=O)[C@@H](NC(=O)OC)C(C)C)[nH]c5c4)nc3)cc2[nH]1)C(C)C [Compound 44] | < 1 nM
13 | COC(=O)N[C@H](C(=O)N1CCC[C@H]1c1nc2ccc(-c3ccc(-c4ccc5nc([C@@H]6CCCN6C(=O)[C@@H](NC(=O)OC)C(C)C)[nH]c5c4)s3)cc2[nH]1)C(C)C [Compound 55] | < 1 nM

same assay, conditions: Hepatitis C virus, 72 h; replicon RNA by real time PCR (Taqman), day 3; numeric, unit inferred; read-out: Biological Activity (EC90, HCV replicon)

Row | SMILES | EC90
14 | COC(=O)N[C@H](C(=O)N1CCC[C@H]1c1nc2cc(F)c(-c3ccc(-c4cc5[nH]c([C@@H]6CCCN6C(=O)[C@@H](NC(=O)OC)C(C)C)nc5cc4F)s3)cc2[nH]1)C(C)C [Compound 115] | 0.003 nM
15 | C#CC[C@@H](NC(=O)OC)C(=O)N1CCC[C@H]1c1nc2ccc(-c3ccc(-c4ccc5nc([C@@H]6CCCN6C(=O)[C@@H](CC#C)NC(=O)OC)[nH]c5c4)s3)cc2[nH]1 [Compound 99] | 0.2 nM
16 | COC(=O)N[C@H](C(=O)N1CCC[C@H]1c1nc2ccc(-c3cc(C)c(-c4ccc5nc([C@@H]6CCCN6C(=O)[C@@H](NC(=O)OC)C(C)C)[nH]c5c4)s3)cc2[nH]1)C(C)C [Compound 103] | 0.005 nM

same assay, conditions: Hepatitis C virus, 72 h; replicon RNA by real time PCR (Taqman), day 3; numeric; read-out: Biological Activity (EC90, HCV replicon)

Row | SMILES | EC90
17 | COC(=O)N[C@H](C(=O)N1CCC[C@H]1c1ncc(-c2ccc(-c3ccc4nc([C@@H]5CCCN5C(=O)[C@@H](NC(=O)OC)C(C)C)[nH]c4c3)[nH]c2=O)[nH]1)C(C)C [Compound 91] | 6 nM
18 | CCCCc1cc(-c2ccc3nc([C@@H]4CCCN4)[nH]c3c2)sc1-c1ccc2nc([C@@H]3CCCN3)[nH]c2c1 [Compound 72] | 26 nM

tested on: HCV replicon genotype 1a 1A7; experiment: HCV replicon assay, genotype 1a 1A7; format: cell-based; conditions: Hepatitis C virus
Experimental: (§1) To measure cell-based anti-HCV activity of selected compounds of the present invention, replicon cells were seeded at 5000 cells/well in 96-well collagen I-coated Nunc plates in the presence of the test compound. Various concentrations of test compound, typically in 10 serial 2-fold dilutions, were added to the assay mixture, with the starting concentration ranging from 250 μM to 1 μM. The final concentration of DMSO was 0.5%, fetal bovine serum was 5%, in the assay media. Cells were harvested on day 3 by the addition of 1× cell lysis buffer (Ambion cat #8721). The replicon RNA level was measured using real time PCR (Taqman assay). The amplicon was located in 5B. The PCR primers were: 5B.2F, ATGGACAGGCGCCCTGA (SEQ. ID NO. 1); 5B.2R, […] (SEQ. ID NO. 2); the probe sequence was FAM-labeled CACGCCATGCGCTGCGG (SEQ. ID NO. 3). GAPDH RNA was used as endogenous control and was amplified in the same reaction as NS5B (multiplex PCR) using primers and VIC-labeled probe recommended by the manufacturer (PE Applied Biosystem). […] Alternatively, to quantitate the absolute amount of replicon RNA, a standard curve was established by including serially diluted T7 transcripts of replicon RNA in the Taqman assay. […]

Row | SMILES | pEC50
19 | COC(=O)N[C@H](C(=O)N1CCC[C@H]1c1nc2ccc(-c3ccc(-c4ccc5nc([C@@H]6CCCN6C(=O)[C@@H](NC(=O)OC)C(C)C)[nH]c5c4)c(OC(F)(F)F)c3)cc2[nH]1)C(C)C [Compound 129] | 10.30

tested on: HCV replicon genotype 1b c16; experiment: HCV replicon assay, genotype 1b c16; format: cell-based; conditions: Hepatitis C virus
Experimental: as §1

Row | SMILES | pEC50
20 | COC(=O)N[C@H](C(=O)N1CCC[C@H]1c1nc2ccc(-c3ccc(-c4ccc5nc([C@@H]6CCCN6C(=O)[C@@H](NC(=O)OC)C(C)C)[nH]c5c4)c(OC(F)(F)F)c3)cc2[nH]1)C(C)C [Compound 129] | 11.52
